Laboratory results taken from PubChem BioAssay (NCI).
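Where inhibition never reached the appropriate level, the endpoint shown equals the highest concentration tested. Otherwise, values were interpolated linearly from a five-concentration, 48-hour dose response in 96-well plates. The concentration for full growth arrest is given as TGI.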

Assays:
Experiment in all cases: growth of human tumour cells (NCI), 48 h
SN12C renal = tested on: SN12C renal
UACC-62 melanoma = tested on: UACC-62 melanoma
HS 578T breast = tested on: HS 578T breast
OVCAR-5 ovarian = tested on: OVCAR-5 ovarian
KM12 colon = tested on: KM12 colon
IGROV1 ovarian = tested on: IGROV1 ovarian
HOP-62 NSCLC = tested on: HOP-62 NSCLC
SK-MEL-5 melanoma = tested on: SK-MEL-5 melanoma
SNB-75 CNS = tested on: SNB-75 CNS
HCT-15 colon = tested on: HCT-15 colon
NCI-H226 lung = tested on: NCI-H226 lung
UO-31 renal = tested on: UO-31 renal
SK-MEL-28 melanoma = tested on: SK-MEL-28 melanoma
SK-MEL-2 melanoma = tested on: SK-MEL-2 melanoma
TK-10 renal = tested on: TK-10 renal
NCI-H522 lung = tested on: NCI-H522 lung
NCI-H460 lung = tested on: NCI-H460 lung
HCC-2998 colon = tested on: HCC-2998 colon
M14 melanoma = tested on: M14 melanoma
MDA-MB-435 = tested on: MDA-MB-435
MDA-MB-231 breast = tested on: MDA-MB-231 breast
EKVX NSCLC = tested on: EKVX NSCLC
SR leukemia = tested on: SR leukemia
HOP-92 NSCLC = tested on: HOP-92 NSCLC
SK-OV-3 ovarian = tested on: SK-OV-3 ovarian
A498 renal = tested on: A498 renal
RXF 393 renal = tested on: RXF 393 renal
DU-145 prostate = tested on: DU-145 prostate
SNB-19 CNS = tested on: SNB-19 CNS
ACHN renal = tested on: ACHN renal
LOX IMVI melanoma = tested on: LOX IMVI melanoma
MALME-3M melanoma = tested on: MALME-3M melanoma
NCI/ADR-RES ovarian = tested on: NCI/ADR-RES ovarian
U251 CNS = tested on: U251 CNS
NCI-H23 lung = tested on: NCI-H23 lung
OVCAR-3 ovarian = tested on: OVCAR-3 ovarian
A549 NSCLC = tested on: A549 NSCLC
HT29 colon = tested on: HT29 colon
BT-549 breast = tested on: BT-549 breast
OVCAR-8 ovarian = tested on: OVCAR-8 ovarian
CAKI-1 renal = tested on: CAKI-1 renal
COLO 205 colon = tested on: COLO 205 colon
HL-60(TB) leukemia = tested on: HL-60(TB) leukemia
SF-295 CNS = tested on: SF-295 CNS
SF-539 CNS = tested on: SF-539 CNS
OVCAR-4 ovarian = tested on: OVCAR-4 ovarian
MDA-N = tested on: MDA-N
SW-620 colon = tested on: SW-620 colon
PC-3 prostate = tested on: PC-3 prostate
786-0 renal = tested on: 786-0 renal
UACC-257 melanoma = tested on: UACC-257 melanoma
HCT-116 colon = tested on: HCT-116 colon
MCF7 breast = tested on: MCF7 breast
T-47D breast = tested on: T-47D breast
RPMI-8226 leukemia = tested on: RPMI-8226 leukemia
K-562 leukemia = tested on: K-562 leukemia
MOLT-4 leukemia = tested on: MOLT-4 leukemia
SF-268 CNS = tested on: SF-268 CNS
CCRF-CEM leukemia = tested on: CCRF-CEM leukemia

O=C(N/N=C\c1c(O)ccc2ccccc12)c1ccncc1
TGI (SN12C renal): > 5.5 µM
TGI (UACC-62 melanoma): 2.04 µM
TGI (HS 578T breast): > 25 µM
TGI (OVCAR-5 ovarian): > 25 µM
TGI (KM12 colon): > 25 µM
TGI (IGROV1 ovarian): 1.84 µM
TGI (HOP-62 NSCLC): > 25 µM
TGI (SK-MEL-5 melanoma): > 9.41 µM
TGI (SNB-75 CNS): > 25 µM
TGI (HCT-15 colon): > 25 µM
TGI (NCI-H226 lung): 2.67 µM
TGI (UO-31 renal): 3.95 µM
TGI (SK-MEL-28 melanoma): > 25 µM
TGI (SK-MEL-2 melanoma): > 9.41 µM
TGI (TK-10 renal): > 25 µM
TGI (NCI-H522 lung): > 7.49 µM
TGI (NCI-H460 lung): > 6.82 µM
TGI (HCC-2998 colon): > 25 µM
TGI (M14 melanoma): > 19.4 µM
TGI (MDA-MB-435): > 25 µM
TGI (MDA-MB-231 breast): > 5.71 µM
TGI (EKVX NSCLC): > 25 µM
TGI (SR leukemia): > 25 µM
TGI (HOP-92 NSCLC): 18.8 µM
TGI (SK-OV-3 ovarian): 24.3 µM
TGI (A498 renal): > 15.6 µM
TGI (RXF 393 renal): > 8.59 µM
TGI (DU-145 prostate): > 25 µM
TGI (SNB-19 CNS): > 25 µM
TGI (ACHN renal): > 13.5 µM
TGI (LOX IMVI melanoma): > 25 µM
TGI (MALME-3M melanoma): > 7.77 µM
TGI (NCI/ADR-RES ovarian): > 8.64 µM
TGI (U251 CNS): > 25 µM
TGI (NCI-H23 lung): > 25 µM
TGI (OVCAR-3 ovarian): > 25 µM
TGI (A549 NSCLC): > 25 µM
TGI (HT29 colon): > 25 µM
TGI (BT-549 breast): > 8.19 µM
TGI (OVCAR-8 ovarian): > 25 µM
TGI (CAKI-1 renal): > 4.94 µM
TGI (COLO 205 colon): > 14.2 µM
TGI (HL-60(TB) leukemia): 5.91 µM
TGI (SF-295 CNS): > 25 µM
TGI (SF-539 CNS): 8.2 µM
TGI (OVCAR-4 ovarian): > 22.2 µM
TGI (MDA-N): > 25 µM
TGI (SW-620 colon): > 25 µM
TGI (PC-3 prostate): > 25 µM
TGI (786-0 renal): > 25 µM
TGI (UACC-257 melanoma): > 25 µM
TGI (HCT-116 colon): > 25 µM
TGI (MCF7 breast): > 7.75 µM
TGI (T-47D breast): > 25 µM
TGI (RPMI-8226 leukemia): > 5.06 µM

COc1ccc(CN=C2N/C(=C\c3ccccc3Cl)C(=O)N2C)cc1
TGI (SN12C renal): 39.8 µM
TGI (UACC-62 melanoma): 37.6 µM
TGI (HS 578T breast): > 100 µM
TGI (OVCAR-5 ovarian): > 100 µM
TGI (KM12 colon): 52.2 µM
TGI (IGROV1 ovarian): 62.6 µM
TGI (K-562 leukemia): > 100 µM
TGI (HOP-62 NSCLC): > 100 µM
TGI (SK-MEL-5 melanoma): 43.2 µM
TGI (MOLT-4 leukemia): > 100 µM
TGI (SNB-75 CNS): 38.4 µM
TGI (HCT-15 colon): > 100 µM
TGI (NCI-H226 lung): > 100 µM
TGI (SK-MEL-28 melanoma): > 100 µM
TGI (SK-MEL-2 melanoma): 42.8 µM
TGI (TK-10 renal): > 100 µM
TGI (NCI-H522 lung): 51.1 µM
TGI (NCI-H460 lung): > 100 µM
TGI (HCC-2998 colon): 59.9 µM
TGI (M14 melanoma): 36.2 µM
TGI (MDA-MB-435): 46.8 µM
TGI (MDA-MB-231 breast): 96.9 µM
TGI (SF-268 CNS): > 100 µM
TGI (EKVX NSCLC): > 100 µM
TGI (SR leukemia): 90 µM
TGI (HOP-92 NSCLC): 63.4 µM
TGI (SK-OV-3 ovarian): > 100 µM
TGI (A498 renal): 77.9 µM
TGI (RXF 393 renal): > 100 µM
TGI (DU-145 prostate): > 100 µM
TGI (SNB-19 CNS): > 100 µM
TGI (ACHN renal): > 100 µM
TGI (LOX IMVI melanoma): 43 µM
TGI (MALME-3M melanoma): > 100 µM
TGI (NCI/ADR-RES ovarian): > 100 µM
TGI (U251 CNS): 40.7 µM
TGI (OVCAR-3 ovarian): 52.4 µM
TGI (A549 NSCLC): > 100 µM
TGI (HT29 colon): 57.2 µM
TGI (BT-549 breast): 94.8 µM
TGI (OVCAR-8 ovarian): 77.4 µM
TGI (CAKI-1 renal): > 100 µM
TGI (COLO 205 colon): 58.8 µM
TGI (HL-60(TB) leukemia): 57.9 µM
TGI (SF-295 CNS): > 100 µM
TGI (SF-539 CNS): 72.7 µM
TGI (OVCAR-4 ovarian): 86.4 µM
TGI (MDA-N): 44.5 µM
TGI (SW-620 colon): 50.1 µM
TGI (PC-3 prostate): 96.6 µM
TGI (786-0 renal): 36.1 µM
TGI (UACC-257 melanoma): > 100 µM
TGI (HCT-116 colon): 39.3 µM
TGI (MCF7 breast): 90.2 µM
TGI (T-47D breast): 48.8 µM

OC1(c2ccccc2)CSc2ncnn21 (stereo unspecified)
TGI (SN12C renal): > 100 µM
TGI (UACC-62 melanoma): > 100 µM
TGI (HS 578T breast): > 100 µM
TGI (KM12 colon): > 100 µM
TGI (IGROV1 ovarian): > 100 µM
TGI (K-562 leukemia): > 100 µM
TGI (HOP-62 NSCLC): > 100 µM
TGI (SK-MEL-5 melanoma): > 100 µM
TGI (MOLT-4 leukemia): > 100 µM
TGI (SNB-75 CNS): > 100 µM
TGI (HCT-15 colon): > 100 µM
TGI (NCI-H226 lung): > 100 µM
TGI (UO-31 renal): > 100 µM
TGI (SK-MEL-2 melanoma): > 100 µM
TGI (TK-10 renal): > 100 µM
TGI (NCI-H522 lung): > 100 µM
TGI (NCI-H460 lung): > 100 µM
TGI (HCC-2998 colon): > 100 µM
TGI (M14 melanoma): > 100 µM
TGI (MDA-MB-435): > 100 µM
TGI (MDA-MB-231 breast): > 100 µM
TGI (SF-268 CNS): > 100 µM
TGI (EKVX NSCLC): > 100 µM
TGI (SR leukemia): > 100 µM
TGI (HOP-92 NSCLC): > 100 µM
TGI (SK-OV-3 ovarian): > 100 µM
TGI (A498 renal): > 100 µM
TGI (RXF 393 renal): > 100 µM
TGI (DU-145 prostate): > 100 µM
TGI (SNB-19 CNS): > 100 µM
TGI (ACHN renal): > 100 µM
TGI (LOX IMVI melanoma): > 100 µM
TGI (MALME-3M melanoma): > 100 µM
TGI (NCI/ADR-RES ovarian): > 100 µM
TGI (U251 CNS): > 100 µM
TGI (NCI-H23 lung): > 100 µM
TGI (OVCAR-3 ovarian): > 100 µM
TGI (A549 NSCLC): > 100 µM
TGI (HT29 colon): > 100 µM
TGI (BT-549 breast): > 100 µM
TGI (OVCAR-8 ovarian): > 100 µM
TGI (CAKI-1 renal): > 100 µM
TGI (COLO 205 colon): > 100 µM
TGI (HL-60(TB) leukemia): > 100 µM
TGI (SF-295 CNS): > 100 µM
TGI (SF-539 CNS): > 100 µM
TGI (OVCAR-4 ovarian): > 100 µM
TGI (MDA-N): > 100 µM
TGI (SW-620 colon): > 100 µM
TGI (PC-3 prostate): > 100 µM
TGI (786-0 renal): > 100 µM
TGI (UACC-257 melanoma): > 100 µM
TGI (HCT-116 colon): > 100 µM
TGI (CCRF-CEM leukemia): > 100 µM
TGI (MCF7 breast): > 100 µM
TGI (T-47D breast): > 100 µM
